From PubChem BioAssay (NCI)
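Grown in 96-well plates, cells were treated for 48 hours with each compound at five concentrations. Insufficient inhibition: endpoint recorded as highest concentration tested. GI50 marks 50% less growth. TGI denotes the concentration required for complete inhibition of growth.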

Columns and labels:
Experiment in all cases: DTP human tumour cell line panel, 48 h
[1] = tested on: DU-145 prostate
[2] = tested on: HCT-15 colon
[3] = tested on: HOP-62 NSCLC
[4] = tested on: HT29 colon
[5] = tested on: IGROV1 ovarian
[6] = tested on: KM12 colon
[7] = tested on: M14 melanoma
[8] = tested on: MDA-MB-435
[9] = tested on: NCI-H226 lung
[10] = tested on: NCI-H522 lung
[11] = tested on: OVCAR-8 ovarian
[12] = tested on: PC-3 prostate
[13] = tested on: SF-539 CNS
[14] = tested on: SK-MEL-5 melanoma
[15] = tested on: SK-OV-3 ovarian
[16] = tested on: SNB-75 CNS
[17] = tested on: TK-10 renal

Compound	TGI [1] [µM]	TGI [2] [µM]	TGI [3] [µM]	TGI [4] [µM]	TGI [5] [µM]	TGI [6] [µM]	TGI [7] [µM]	TGI [8] [µM]	TGI [9] [µM]	TGI [10] [µM]	TGI [11] [µM]	TGI [12] [µM]	TGI [13] [µM]	TGI [14] [µM]	TGI [15] [µM]	TGI [16] [µM]	TGI [17] [µM]	GI50 [1] [µM]	GI50 [3] [µM]	GI50 [13] [µM]
CCCCCCCCCCCCN(CC(O)C(O)C(OC1OC(CO)C(O)C(O)C1O)C(O)CO)C(=O)CCCCCCCCCCC (stereo not drawn)	35.8	35.4	55.6	34.4	35.8	36.7	39.7	30.8	44.6	52.9	46.7	52.9	> 100	31.3	52.6	35	29.9			
CCC/C=C/c1cc2c(cc1O)CC[C@@H]1[C@@H]2CC[C@]2(C)[C@@H](O)CC[C@@H]12	34.2	39.9	42.6	32.9	49.4	32.6	37.3	32.1	45.8	35.5	64.2	31	35.7	30.2	63.2	34.6	38	18.7	21.9	20.2
CCOC(=O)C1(Cc2ccccc2)C=CN(C(=O)c2ccccc2)C=C1	> 100	> 100	> 100	> 100	> 100	> 100	> 100	90.5	> 100	76	> 100	> 100	> 100	29.8	> 100	64.2	88.3			
COC(=O)c1cc(C)ccc1C1CN=NC12Cc1ccc(C)cc1C2=O (stereo not drawn)	> 100	> 100	> 100	> 100	> 100	> 100	> 100	> 100	> 100	98.9	> 100	> 100	> 100	31.9	> 100	> 100	> 100			
O=c1cc(N2CCNCC2)nc2ccccn12	> 100	> 100	> 100	> 100	> 100	> 100	> 100	> 100	> 100	> 100	> 100	> 100	> 100	> 100	> 100	> 100	> 100			
Cc1cc2cc3c(cc2c(-c2ccc([N+](=O)[O-])cc2)n1)OCO3	> 100	> 100	40	> 100	54.9	> 100	> 100	> 100	89.8	40.6	> 100	> 100	72.4	> 100	71.2	58.4	> 100			
O=S(=O)(SC1=NCCN1)c1ccc2ccccc2c1	> 100	71	69.5	40	> 100	44.1	63.6	42.8	98	46.3	40.5	> 100	63.7	64.5	54.7	68	> 100			
Cc1cc(S(=O)(=O)Nc2nc(N)n(-c3ccccn3)n2)c(S)cc1Cl	> 100	> 100	> 100	> 100	> 100	> 100	> 100	> 100	> 100	> 100	> 100	> 100	> 100	> 100	> 100	> 100	> 100			
O=c1[nH]nc(-c2ccccc2)n1/N=C/c1ccc([N+](=O)[O-])cc1	> 100	> 100	25.8	> 100	> 100	> 100	> 100	> 100	> 75	> 100	37.1	> 100	> 100	> 100	9.34	34.9	55			
O=c1oc2ccccc2cc1-c1csc(Nc2ccc(F)cc2)n1	11.3	11.2	8.22	14.2	21.9	18.4	13.6	17	19.7	3.82	23.5	19.3	3.5	23.9	15.6	4.57	8.21			
COC1(C)CP(=O)(OC(C)C)CC(C)=C1Cl (stereo not drawn)	82.7	29.2	51.7	26.5	29.6	34	46.2	> 100	78.2	24.8	> 100	77.9	39.2	26.6	> 100	> 100	33.2			
c1ccc(-c2cn3c(nc4ccccc43)c(-c3ccccc3)n2)cc1	> 100	> 100	27.9	> 100	> 100	> 100	> 100	> 100	> 96.7	> 100	40.3	> 100	> 100	> 100	38.4	> 32.9	> 93.4			
O=C1N=C(SC2OC(CO)C(O)C(O)C2O)S/C1=C\c1ccccc1 (stereo not drawn)	> 100	> 100	> 100	> 100	> 100	> 100	> 100	> 100	> 100	> 100	> 100	> 100	> 100	> 100	> 100	> 100	> 100			
COc1nc(N=P(c2ccccc2)(c2ccccc2)c2ccccc2)cc(=O)[nH]1	> 100	> 100	> 100	> 100	> 100	> 100	> 100	> 100	> 100	> 100	> 100	> 100	> 100	> 100	> 100	> 100	> 100			
Cc1cc2c(cc1C(=O)CCC(=O)O)CC1(C2)Cc2cc(C)c(C(=O)CCC(=O)O)cc2C1	> 100	> 100	> 100	> 100	> 100	> 100	> 100	> 100	> 100	> 100	> 100	> 100	> 100	> 100	> 100	> 100	> 100			
COC(=O)c1cc2c(cc1CC1Cc3cc4c(cc3C1=O)CCC4)CCC2 (stereo not drawn)	> 100	> 100	> 100	> 100	> 100	> 100	> 100	> 100	> 100	> 100	> 100	> 100	> 100	42.5	> 100	> 100	> 100			
CC(=O)N(C(C)=O)n1c(Cc2ccc(Cl)cc2)n[nH]c1=O	> 100	> 100	98.8	> 100	> 100	> 100	> 100	> 100	> 100	> 100	> 100	> 100	> 100	> 100	> 100	> 100	> 100			
Cc1ccc([N+](=O)[O-])cc1S(=O)(=O)Nc1ccc(C2=NN(c3ccc([N+](=O)[O-])cc3[N+](=O)[O-])C(c3cccs3)C2)cc1 (stereo not drawn)	> 100	32.7	58.3	> 100	53.7	55.6	32.9	51.4	60.1	39	92.1	> 100	71.2	26.1	77.9	81.3	81.7			
COc1ccccc1N(CN1C(=O)CCC1C(=O)O)C(C)=O (stereo not drawn)	> 100	> 100	> 100	> 100	> 100	> 100	> 100	> 100	> 100	> 100	> 100	> 100	> 100	> 100	> 100	> 100	> 100			
OC1(c2ccccc2)C2CCN(CC2)C1CN1CCOCC1 (stereo not drawn)	> 100	> 100	> 100	> 100	> 100	> 100	> 100	> 100	> 100	> 100	> 100	> 100	> 100	> 100	> 100	> 100	> 100			
